Several values for one entry are separate records, joined by “and”; a condition that tells them apart may be missing. Equal values may be shown once.
Legend:
[1] = Bioavailability in vivo in rats: lithium in plasma and brain by ICP-OES after oral administration; conditions: for Cmax (brain) / Tmax (brain) / t½_Lambda_z (brain) / AUClast (brain) / Relative Brain BA (UL crystal forms, oral vs Li2CO3, oral): rat brain; for Cmax (brain) / Tmax (brain) / t½_Lambda_z (brain) / AUClast (brain) / Cmax (plasma) / Tmax (plasma) / t½_Lambda_z (plasma) / BRAIN CONC., Time(h) 2.00 / PLASMA CONC, Time(h) 2.00 / BRAIN CONC., Time(h) 24.00 / PLASMA CONC, Time(h) 24.00 / BRAIN CONC., Time(h) 48.00 / PLASMA CONC, Time(h) 48.00 / BRAIN CONC., Time(h) 72.00 / PLASMA CONC, Time(h) 72.00: 4 mEq/kg lithium oral; for Cmax (brain) / Tmax (brain) / Cmax (plasma) / Tmax (plasma): non-compartmental; for t½_Lambda_z (brain) / t½_Lambda_z (plasma): terminal phase; for AUClast (brain): time 0 to last quantifiable point; for Relative Brain BA (UL crystal forms, oral vs Li2CO3, oral) / Relative Plasma BA (UL crystal forms, oral vs Li2CO3 oral): relative to lithium carbonate; for Cmax (plasma) / Tmax (plasma) / t½_Lambda_z (plasma) / Relative Plasma BA (UL crystal forms, oral vs Li2CO3 oral): rat plasma; for BRAIN CONC., Time(h) 2.00 / PLASMA CONC, Time(h) 2.00 / BRAIN CONC., Time(h) 24.00 / PLASMA CONC, Time(h) 24.00 / BRAIN CONC., Time(h) 48.00 / PLASMA CONC, Time(h) 48.00 / BRAIN CONC., Time(h) 72.00 / PLASMA CONC, Time(h) 72.00: rat, individual rats (three per time); for BRAIN CONC., Time(h) 2.00 / PLASMA CONC, Time(h) 2.00: 2 h; for BRAIN CONC., Time(h) 2.00 / BRAIN CONC., Time(h) 24.00 / BRAIN CONC., Time(h) 48.00 / BRAIN CONC., Time(h) 72.00: lithium in brain; for PLASMA CONC, Time(h) 2.00 / PLASMA CONC, Time(h) 24.00 / PLASMA CONC, Time(h) 48.00 / PLASMA CONC, Time(h) 72.00: lithium in plasma; for BRAIN CONC., Time(h) 24.00 / PLASMA CONC, Time(h) 24.00: 24 h; for BRAIN CONC., Time(h) 48.00 / PLASMA CONC, Time(h) 48.00: 48 h; for BRAIN CONC., Time(h) 72.00 / PLASMA CONC, Time(h) 72.00: 72 h
Protocol: Male Sprague-Dawley rats, weighing 240-290 g, were treated through gastric intubation with formulations of lithium and compared with lithium carbonate as a reference. For each formulation a group of 12 rats was treated. 4 mEq/kg of lithium were orally administered, after suspension in 2 mL of corn seeds oil (“Olio Cuore”).
Four intervals' post-administration time (2, 24, 48 and 72 hours) were considered and three rats for each of them, employing the protocol used by Zaworotko and coworkers (Smith et al., Mol. Pharmaceutics 2013, 10, 4728-4738). At each time interval blood samples were collected through intra-cardiac […], these were treated with 50 μL of sodium heparin and centrifuged for 10 min at 1600 rpm. Plasma samples of approximately […] each were thus obtained. The brain was explanted in toto with perfusion with phosphate buffered saline (PBS) in order to preserve it in a viable state. The plasma and brain samples were immediately frozen at a temperature of −80° C., after measuring the weight of the brains.
In order to determine the concentration of the lithium by means of the ICP-OES (Inductively Coupled Plasma Optical Emission Spectometry) analysis, plasma and brain samples were purified and mineralized, respectively to obtain solutions suitable for analysis.
A 0.5 mL aliquot was taken from each sample, to which were added equal amounts of MilliQ water and concentrated nitric acid, in order to bring the lithium ion in solution in the form of LiNO3 and to obtain the precipitation of the proteins. At this point, each sample was sonicated for 10 min in an ultrasonic bath and diluted to a volume of 5.0 mL.
All samples were subjected to centrifugation for a period of 40 min, at a rotational speed of 6000 rpm, to obtain complete plasma proteins/solution separation. At the end supernatant liquid containing lithium was diluted to a final volume of 15 mL by adding MilliQ water. The obtained solutions were stored at a temperature of 4° C. until analysis.
The purpose of this phase was to obtain liquid samples, suitable to ICP-OES analysis, containing lithium in solution, starting from the solid organic tissue of the brain. The mineralization process allows the complete degradation of organic substances until the total transformation into simple inorganic substances.
The first operation performed was that the drying of the fabric, obtained through the use of a digester open PerkinElmer SPB 100-12: each sample of brain has been inserted in special containers Digitube™ 100 mL and maintained at a temperature of 80° C. for 120 min.
The second step involved the mineralization true and proper brain: each sample were added to 10 mL of concentrated nitric acid and 1.0 mL of hydrogen peroxide, then the system was brought to a temperature of 120° C. for 120 min. until the complete mineralization. With this procedure you get the desired biological degradation of organic compounds and the consequent passage of lithium in solution. The solutions thus obtained were collected, brought to a final volume of 20 mL with MilliQ water and preserved at a temperature of 4° C. until time of analysis.
In order to obtain the determination of lithium ion concentrations in the samples previously prepared, optical emission spectrometry inductively coupled plasma ICP-OES was used (PerkinElmer Optima 8000 spectrometer).
The analysis was conducted at the fixed wavelength of lithium (λ=670.784 nm) and the intensity of the radiation emitted by each sample was measured and compared standard solutions.
Plasma and brain concentration data were processed using a non-compartmental approach using WinNonlin® software (Pharsight Corporation, USA) and Microsoft Excel XP (Microsoft Corporation, […]).

[2] = Stability of crystalline material under warm humid conditions (40° C., 75% relative humidity), PXRD before and after; assay type: physicochemical; conditions: for PXRD pattern after storage compared with initial pattern: after 2 months at 75% relative humidity and 40° C.; for Stable?: stored at 40° C., 75% relative humidity, stable = retained crystal form for at least two weeks by PXRD
Protocol: The stability of these compounds under warm humid conditions was assessed as follows:
The crystalline material was stored at 40° C. in an atmosphere of 75% relative humidity.
Compounds were classed as stable if they retained their crystal form for at least two weeks as verified by examination of PXRD patterns collected before and after exposure to humidity.
It can be seen that the pattern obtained after 2 months at 75% relative humidity and 40° C. (upper trace) in this case is different.

COc1ccccc1C(=O)[O-].O=C(O)[C@@H]1CCCN1.[Li+] [Compound 1, [Li(2-methoxybenzoate)(L-proline)]n]
Cmax (brain) [1]: 3.5067 µg/g
Tmax (brain) [1]: 24 h
t½_Lambda_z (brain) [1]: 18.9045 h
AUClast (brain) [1]: 172.2533 mg·h/g
Relative Brain BA (UL crystal forms, oral vs Li2CO3, oral) [1]: 74.12%
Cmax (plasma) [1]: 4.1200 µg/mL
Tmax (plasma) [1]: 24 h
t½_Lambda_z (plasma) [1]: 12.9141 h
Relative Plasma BA (UL crystal forms, oral vs Li2CO3 oral) [1]: 58.42%
BRAIN CONC., Time(h) 2.00 [1]: 0.96 µg/g and 0.71 µg/g and 0.68 µg/g
PLASMA CONC, Time(h) 2.00 [1]: 3.43 µg/mL and 1.78 µg/mL and 2.31 µg/mL
BRAIN CONC., Time(h) 24.00 [1]: 3.64 µg/g and 4.28 µg/g and 2.60 µg/g
PLASMA CONC, Time(h) 24.00 [1]: 3.85 µg/mL and 6.01 µg/mL and 2.50 µg/mL
BRAIN CONC., Time(h) 48.00 [1]: 2.81 µg/g and 4.50 µg/g and 2.06 µg/g
PLASMA CONC, Time(h) 48.00 [1]: 0.97 µg/mL and 1.78 µg/mL and 0.85 µg/mL
BRAIN CONC., Time(h) 72.00 [1]: 0.62 µg/g and 0.68 µg/g and 0.51 µg/g
PLASMA CONC, Time(h) 72.00 [1]: 0.23 µg/mL and 0.40 µg/mL and 0.31 µg/mL
PXRD pattern after storage compared with initial pattern [2]: substantially identical
Stable? [2]: Yes

CNCC(=O)O.O.O=C([O-])c1cccnc1.[Li+] [Compound 9, [Li(nicotinate)(sarcosine)(water)]n]
Stable? [2]: No

O=C(O)C(=O)O.O=C(O)C(=O)O.O=C([O-])C(=O)O.[Li+].c1c[nH]cn1.c1c[nH]cn1 [Compound 11, [(imidazolium)2^+(Li(hydogen oxalate)(oxalate))^−(oxalic acid)]]
PXRD pattern after storage compared with initial pattern [2]: different
Stable? [2]: No

O=C(O)[C@@H]1CCCN1.O=C([O-])c1ccccc1.[Li+] [Compound 12, [Li(benzoate)(L-proline)]n]
Stable? [2]: Yes

O=C(O)[C@@H]1CCCN1.O=C([O-])c1ccccc1O.[Li+] [Compound 14, [Li(salicylate)(L-proline)]n]
Stable? [2]: Yes

O=C([O-])CCC(=O)[O-].[Li+].[Li+] [Compound 16, [Li2 (succinate)]n]
Stable? [2]: Yes

O=C([O-])c1ccccc1.[Li+] [Compound 18, [Li (benzoate)]n]
Stable? [2]: Yes

CNCC(=O)O.O.O=C([O-])c1ccc(O)cc1.[Li+] [Compound 19, [Li(sarcosine)(4-hydroxybenzoate)(water)]n]
Stable? [2]: No

CC(O)C(=O)[O-].CC(O)C(=O)[O-].NC(N)=O.O.O.[Li+].[Li+] (stereo not drawn) [Compound 21, [(Li2(lactate)2(water)2)(urea)]n]
Stable? [2]: No

NC(=O)c1ccncc1.O.O=C([O-])/C=C\C(=O)O.[Li+] [Compound 22, [Li(maleate)(isonicotinamide) (water)]n]
Stable? [2]: No

CC1=CC(=O)[N-]S(=O)(=O)O1.O.[Li+] [Compound 23, [Li(acesulfame)(water)]n]
Stable? [2]: No

NCCC(=O)O.NCCC(=O)O.O.O=C([O-])C(=O)[O-].[Li+].[Li+] [Compound 25, [Li2(oxalate)(beta-alanine)2(water)]n]
Stable? [2]: No

CC1(C)C2CCC1(CS(=O)(=O)[O-])C(=O)C2.CC1(C)C2CCC1(CS(=O)(=O)[O-])C(=O)C2.NC(N)=O.NC(N)=O.O.O.[Li+].[Li+] (stereo not drawn) [Compound 28, [Li2(camphorsulphonate)2(urea)2 (water)2]]
Stable? [2]: No

CC1(C)C2CCC1(CS(=O)(=O)[O-])C(=O)C2.CNCC(=O)O.O.O.[Li+] (stereo not drawn) [Compound 30, [Li(camphorsulfonate)(sarcosine)(water)2]]
Stable? [2]: No

NC(=O)c1ccncc1.NC(=O)c1ccncc1.NC(=O)c1ccncc1.NC(=O)c1ccncc1.NC(=O)c1ccncc1.NC(=O)c1ccncc1.NC(=O)c1ccncc1.NC(=O)c1ccncc1.O=C([O-])c1ccccc1O.O=C([O-])c1ccccc1O.O=C([O-])c1ccccc1O.O=C([O-])c1ccccc1O.[Li+].[Li+].[Li+].[Li+] [Compound 32, [Li2(salicylate)2(isonicotinamide)4]2]
Stable? [2]: No

O=C([O-])[O-].[Li+].[Li+] [Lithium carbonate, lithium carbonate, reference compound]
Cmax (brain) [1]: 5.9900 µg/g
Tmax (brain) [1]: 24 h
t½_Lambda_z (brain) [1]: 13.7913 h
AUClast (brain) [1]: 232.4100 mg·h/g
Relative Brain BA (UL crystal forms, oral vs Li2CO3, oral) [1]: 100.00%
Cmax (plasma) [1]: 8.4133 µg/mL
Tmax (plasma) [1]: 24 h
t½_Lambda_z (plasma) [1]: 7.3913 h
Relative Plasma BA (UL crystal forms, oral vs Li2CO3 oral) [1]: 100.00%
BRAIN CONC., Time(h) 2.00 [1]: 0.60 µg/g and 1.43 µg/g and 0.68 µg/g
PLASMA CONC, Time(h) 2.00 [1]: 3.02 µg/mL and 4.82 µg/mL and 2.72 µg/mL
BRAIN CONC., Time(h) 24.00 [1]: 7.89 µg/g and 4.55 µg/g and 5.53 µg/g
PLASMA CONC, Time(h) 24.00 [1]: 8.72 µg/mL and 5.32 µg/mL and 11.20 µg/mL
BRAIN CONC., Time(h) 48.00 [1]: 3.35 µg/g and 2.89 µg/g and 3.43 µg/g
PLASMA CONC, Time(h) 48.00 [1]: 1.29 µg/mL and 1.18 µg/mL and 1.60 µg/mL
BRAIN CONC., Time(h) 72.00 [1]: 0.54 µg/g and 0.52 µg/g and 0.55 µg/g
PLASMA CONC, Time(h) 72.00 [1]: 0.14 µg/mL and 0.06 µg/mL and 0.08 µg/mL

Li(adeninate)(water)3 [Compound 8]
Stable? [2]: No

[(imidazolium)2^+(Li(hydrogen malate)2(water))^−] [Compound 33]
Stable? [2]: No

[Li2 (fumarate)]n [Compound 15]
Stable? [2]: Yes

[Li2 (oxalate)]n [Compound 17]
Stable? [2]: Yes

[Li(camphorsulfonate)(water)2] [Compound 29]
Stable? [2]: No

[Li(hydrogen maleate)(sarcosine)(water)] [Compound 27]
Stable? [2]: No

[Li(pyridoxinate)(water)]n [Compound 10]
Stable? [2]: No

{[Li(malate) (water)2]•(imidazolium)}n [Compound 26]
Stable? [2]: No

{[Li(p-toluenesulfonate)]•H30}n [Compound 31]
Stable? [2]: No

— US12234248B2, “Co-crystal compounds comprising lithium ions and isonicotinamide” (UNIVERSITY OF LIMERICK, priority 2017, dated 2025)
